Laboratory results reported in PubChem BioAssay AID1745844 (Carcinogenic Potency Database (CPDB), 2022).
Calls of active or inactive are those of the source. No rule for the calls is given here.

Tested on: rodent lifetime carcinogenesis bioassay, tumor incidence TD50
Test: chronic cancer bioassays in animals – CPDB, compiled studies (AID 1745844)

Question: What does the source list for `O=[N+]([O-])c1cccc2cccnc12`?
Answer: TD50 (rat, strain Fischer 344, females, in feed, site: forestomach, lesion: squamous-cell carcinoma, dosed 104 weeks, study length 104 weeks): 32.8 mg/kg/day; TD50 (rat, strain Fischer 344, females, in feed, site: forestomach, lesion: squamous-cell papilloma, dosed 104 weeks, study length 104 weeks): 9.55 mg/kg/day; carcinogen call (rat, strain Fischer 344, females, in feed, site: liver, lesion: hyperplastic nodule, dosed 104 weeks, study length 104 weeks): negative (inactive); TD50 (rat, strain Fischer 344, males, in feed, site: forestomach, lesion: squamous-cell carcinoma, dosed 104 weeks, study length 104 weeks): 24.9 mg/kg/day; TD50 (rat, strain Fischer 344, males, in feed, site: forestomach, lesion: squamous-cell papilloma, dosed 104 weeks, study length 104 weeks): 10.1 mg/kg/day; carcinogen call (rat, strain Fischer 344, males, in feed, site: liver, lesion: hyperplastic nodule, dosed 104 weeks, study length 104 weeks): negative (inactive)

Question: `CCCN=[N+]([O-])CCC` was tested. Which TD50 (rat, strain Sprague-Dawley, males, by gavage, site: liver, lesion: hepatocellular carcinoma, dosed 26 weeks, study length 77 weeks) did it give?
Answer: 0.00736 mg/kg/day

Question: And the TD50 (rat, strain Sprague-Dawley, males, by gavage, site: nasal cavity, lesion: esthesioneuroepithelioma, dosed 26 weeks, study length 77 weeks)?
Answer: 0.000723 mg/kg/day

Question: What about the TD50 (rat, strain Sprague-Dawley, males, by gavage, site: nasal cavity, lesion: papilloma, dosed 26 weeks, study length 77 weeks) of the same compound?
Answer: 0.00736 mg/kg/day

Question: What about the TD50 (rat, strain Sprague-Dawley, males, by gavage, site: nasal cavity, lesion: several types, types named in the paper, dosed 26 weeks, study length 77 weeks) of the same compound?
Answer: 0.000596 mg/kg/day

Question: What about the TD50 (rat, strain Sprague-Dawley, males, by gavage, site: skin, lesion: keratoacanthoma, dosed 26 weeks, study length 77 weeks) of the same compound?
Answer: 0.00038 mg/kg/day

Question: And the carcinogen call (rat, strain Sprague-Dawley, males, by gavage, site: skin, lesion: several types, types named in the paper, dosed 26 weeks, study length 77 weeks)?
Answer: positive

Question: Which results are given for `Clc1ccc(C(c2ccc(Cl)cc2)C(Cl)Cl)cc1`?
Answer: TD50 (mouse, strain B6AKF1, females, oral dosing, site: any site (literature study), lesion: several types, types named in the paper, dosed 76 weeks, study length 76 weeks): 37.4 mg/kg/day; TD50 (mouse, strain B6AKF1, females, oral dosing, site: lung, lesion: adenoma, dosed 76 weeks, study length 76 weeks): 73 mg/kg/day; TD50 (mouse, strain B6AKF1, males, oral dosing, site: any site (literature study), lesion: several types, types named in the paper, dosed 76 weeks, study length 76 weeks): 49 mg/kg/day; TD50 (mouse, strain B6AKF1, males, oral dosing, site: lung, lesion: adenoma, dosed 76 weeks, study length 76 weeks): 82.9 mg/kg/day; TD50 (mouse, strain B6C3F1, females, in feed, site: any site (literature study), lesion: several types, types named in the paper, dosed 78 weeks, study length 90 weeks): 108 mg/kg/day (inactive); TD50 (mouse, strain B6C3F1, females, in feed, site: liver, lesion: hepatocellular adenoma + hepatocellular carcinoma + neoplastic nodule, dosed 78 weeks, study length 90 weeks): 493 mg/kg/day; TD50 (mouse, strain B6C3F1, females, oral dosing, site: any site (literature study), lesion: several types, types named in the paper, dosed 76 weeks, study length 76 weeks): 250 mg/kg/day; TD50 (mouse, strain B6C3F1, females, oral dosing, site: lung, lesion: adenoma, dosed 76 weeks, study length 76 weeks): 250 mg/kg/day; TD50 (mouse, strain B6C3F1, males, in feed, site: any site (literature study), lesion: several types, types named in the paper, dosed 78 weeks, study length 90 weeks): 997 mg/kg/day (inactive); TD50 (mouse, strain B6C3F1, males, in feed, site: liver, lesion: hepatocellular adenoma + hepatocellular carcinoma + neoplastic nodule, dosed 78 weeks, study length 90 weeks): 116 mg/kg/day; TD50 (mouse, strain B6C3F1, males, oral dosing, site: any site (literature study), lesion: several types, types named in the paper, dosed 76 weeks, study length 76 weeks): 34.8 mg/kg/day; TD50 (mouse, strain B6C3F1, males, oral dosing, site: liver, lesion: hepatoma, dosed 76 weeks, study length 76 weeks): 43.3 mg/kg/day; TD50 (mouse, strain B6C3F1, males, oral dosing, site: lung, lesion: adenoma, dosed 76 weeks, study length 76 weeks): 120 mg/kg/day; TD50 (mouse, strain CF-1, females, in feed, site: any site (literature study), lesion: several types, types named in the paper, dosed 123 weeks, study length 123 weeks): 67.1 mg/kg/day; TD50 (mouse, strain CF-1, females, in feed, site: liver, lesion: hepatoma, dosed 123 weeks, study length 123 weeks): 4830 mg/kg/day (inactive); TD50 (mouse, strain CF-1, females, in feed, site: lung, lesion: several types, types named in the paper, dosed 123 weeks, study length 123 weeks): 39.9 mg/kg/day; TD50 (mouse, strain CF-1, males, in feed, site: any site (literature study), lesion: several types, types named in the paper, dosed 123 weeks, study length 123 weeks): 33.2 mg/kg/day; TD50 (mouse, strain CF-1, males, in feed, site: liver, lesion: hepatoma, dosed 123 weeks, study length 123 weeks): 86.8 mg/kg/day; TD50 (mouse, strain CF-1, males, in feed, site: lung, lesion: several types, types named in the paper, dosed 123 weeks, study length 123 weeks): 24.9 mg/kg/day; carcinogen call (rat, strain Osborne-Mendel, females, in feed, site: any site (literature study), lesion: several types, types named in the paper, dosed 78 weeks, study length 111 weeks): negative (inactive); TD50 (rat, strain Osborne-Mendel, females, in feed, site: liver, lesion: hepatocellular adenoma + hepatocellular carcinoma + neoplastic nodule, dosed 78 weeks, study length 111 weeks): 2080 mg/kg/day; TD50 (rat, strain Osborne-Mendel, males, in feed, site: any site (literature study), lesion: several types, types named in the paper, dosed 78 weeks, study length 111 weeks): 82.6 mg/kg/day; TD50 (rat, strain Osborne-Mendel, males, in feed, site: thyroid gland, lesion: follicular-cell adenoma + follicular-cell carcinoma, dosed 78 weeks, study length 111 weeks): 75.8 mg/kg/day

Question: `C=CCN(N)CC=C` was tested. Which TD50 (mouse, strain Swiss albino, females, in drinking water, site: forestomach, lesion: squamous-cell papilloma, dosed 100 weeks, study length 100 weeks) did it give?
Answer: 332 mg/kg/day

Question: What about the carcinogen call (mouse, strain Swiss albino, females, in drinking water, site: liver, lesion: angioma, dosed 100 weeks, study length 100 weeks) of the same compound?
Answer: negative (inactive)

Question: And the carcinogen call (mouse, strain Swiss albino, females, in drinking water, site: liver, lesion: angiosarcoma, dosed 100 weeks, study length 100 weeks)?
Answer: negative (inactive)

Question: What about the TD50 (mouse, strain Swiss albino, females, in drinking water, site: lung, lesion: adenocarcinoma, dosed 100 weeks, study length 100 weeks) of the same compound?
Answer: 112 mg/kg/day

Question: And the TD50 (mouse, strain Swiss albino, females, in drinking water, site: lung, lesion: adenoma, dosed 100 weeks, study length 100 weeks)?
Answer: 37.8 mg/kg/day

Question: What about the TD50 (mouse, strain Swiss albino, females, in drinking water, site: lung, lesion: several types, types named in the paper, dosed 100 weeks, study length 100 weeks) of the same compound?
Answer: 34.9 mg/kg/day

Question: What about the TD50 (mouse, strain Swiss albino, males, in drinking water, site: forestomach, lesion: squamous-cell papilloma, dosed 93 weeks, study length 93 weeks) of the same compound?
Answer: 48.1 mg/kg/day

Question: And the carcinogen call (mouse, strain Swiss albino, males, in drinking water, site: liver, lesion: angioma, dosed 93 weeks, study length 93 weeks)?
Answer: negative (inactive)

Question: What about the TD50 (mouse, strain Swiss albino, males, in drinking water, site: liver, lesion: angiosarcoma, dosed 93 weeks, study length 93 weeks) of the same compound?
Answer: 723 mg/kg/day (inactive)

Question: What about the TD50 (mouse, strain Swiss albino, males, in drinking water, site: lung, lesion: adenocarcinoma, dosed 93 weeks, study length 93 weeks) of the same compound?
Answer: 38.9 mg/kg/day

Question: And the TD50 (mouse, strain Swiss albino, males, in drinking water, site: lung, lesion: adenoma, dosed 93 weeks, study length 93 weeks)?
Answer: 29.8 mg/kg/day

Question: And the TD50 (mouse, strain Swiss albino, males, in drinking water, site: lung, lesion: several types, types named in the paper, dosed 93 weeks, study length 93 weeks)?
Answer: 25.7 mg/kg/day

Question: With `CC(=O)OC/C=C(C)/C=C/C=C(C)/C=C/C1=C(C)CCCC1(C)C` as the compound, how does the TD50 (rat, strain F344/DuCrj, females, in drinking water, site: adrenal medulla, lesion: pheochromocytoma, malignant, dosed 104 weeks, study length 108 weeks) read?
Answer: 7340 mg/kg/day

Question: What about the TD50 (rat, strain F344/DuCrj, females, in drinking water, site: adrenal medulla, lesion: pheochromocytoma, dosed 104 weeks, study length 108 weeks) of the same compound?
Answer: 227 mg/kg/day

Question: And the TD50 (rat, strain F344/DuCrj, females, in drinking water, site: liver, lesion: neoplastic nodule, dosed 104 weeks, study length 108 weeks)?
Answer: 7340 mg/kg/day

Question: And the TD50 (rat, strain F344/DuCrj, males, in drinking water, site: adrenal medulla, lesion: pheochromocytoma, malignant, dosed 104 weeks, study length 108 weeks)?
Answer: 552 mg/kg/day

Question: What about the TD50 (rat, strain F344/DuCrj, males, in drinking water, site: adrenal medulla, lesion: pheochromocytoma, dosed 104 weeks, study length 108 weeks) of the same compound?
Answer: 86.4 mg/kg/day

Question: And the carcinogen call (rat, strain F344/DuCrj, males, in drinking water, site: forestomach, lesion: neoplasm, dosed 52 weeks, study length 52 weeks)?
Answer: negative (inactive)

Question: What about the TD50 (rat, strain F344/DuCrj, males, in drinking water, site: liver, lesion: cholangioma, dosed 104 weeks, study length 108 weeks) of the same compound?
Answer: 6470 mg/kg/day

Question: And the TD50 (rat, strain F344/DuCrj, males, in drinking water, site: liver, lesion: neoplastic nodule, dosed 104 weeks, study length 108 weeks)?
Answer: 2060 mg/kg/day

Question: And the TD50 (rat, strain F344/DuCrj, males, in drinking water, site: liver, lesion: several types, types named in the paper, dosed 104 weeks, study length 108 weeks)?
Answer: 3670 mg/kg/day

Question: And the TD50 (rat, strain F344/DuCrj, males, in drinking water, site: spleen, lesion: mononuclear-cell leukemia, dosed 104 weeks, study length 108 weeks)?
Answer: 548 mg/kg/day

Question: What about the TD50 (rat, strain F344/DuCrj, males, in drinking water, site: thyroid gland, lesion: c-cell adenoma, dosed 104 weeks, study length 108 weeks) of the same compound?
Answer: 671 mg/kg/day

Question: What about the TD50 (rat, strain F344/DuCrj, males, in drinking water, site: thyroid gland, lesion: several types, types named in the paper, dosed 104 weeks, study length 108 weeks) of the same compound?
Answer: 976 mg/kg/day

Question: Which TD50 (rat, strain Fischer 344, males, in feed, site: kidney, lesion: tubular-cell adenoma, dosed 71 weeks, study length 71 weeks) does the source give for `CCC(CC)C(=O)NC(N)=O` here?
Answer: 30.4 mg/kg/day

Question: How did the TD50 (mouse, strain CD-1 HaM/ICR, females, in feed, site: any site (literature study), lesion: several types, types named in the paper, dosed 77 weeks, study length 94 weeks) turn out when `O=[N+]([O-])c1ccc(Cl)c([N+](=O)[O-])c1` was run?
Answer: 124 mg/kg/day (inactive)

Question: What about the TD50 (mouse, strain CD-1 HaM/ICR, females, in feed, site: liver, lesion: several types, types named in the paper, dosed 77 weeks, study length 94 weeks) of the same compound?
Answer: 1520 mg/kg/day (inactive)

Question: And the TD50 (mouse, strain CD-1 HaM/ICR, females, in feed, site: lung, lesion: several types, types named in the paper, dosed 77 weeks, study length 94 weeks)?
Answer: 150 mg/kg/day (inactive)

Question: And the TD50 (mouse, strain CD-1 HaM/ICR, males, in feed, site: any site (literature study), lesion: several types, types named in the paper, dosed 77 weeks, study length 94 weeks)?
Answer: 255 mg/kg/day (inactive)

Question: And the TD50 (mouse, strain CD-1 HaM/ICR, males, in feed, site: liver, lesion: several types, types named in the paper, dosed 77 weeks, study length 94 weeks)?
Answer: 365 mg/kg/day (inactive)

Question: What about the TD50 (mouse, strain CD-1 HaM/ICR, males, in feed, site: lung, lesion: several types, types named in the paper, dosed 77 weeks, study length 94 weeks) of the same compound?
Answer: 541 mg/kg/day (inactive)

Question: What about the TD50 (rat, strain Charles River CD (Sprague-Dawley), males, in feed, site: any site (literature study), lesion: several types, types named in the paper, dosed 77 weeks, study length 103 weeks) of the same compound?
Answer: 12.3 mg/kg/day (inactive)

Question: What about the carcinogen call (rat, strain Charles River CD (Sprague-Dawley), males, in feed, site: liver, lesion: several types, types named in the paper, dosed 77 weeks, study length 103 weeks) of the same compound?
Answer: negative (inactive)
